From ChEMBL document CHEMBL3593175, “Bicyclic [3.3.0]-Octahydrocyclopenta[c]pyrrolo Antagonists of Retinol Binding Protein 4: Potential Treatment of Atrophic Age-Related Macular Degeneration and Stargardt Disease” (J Med Chem, 2015)

Columns and labels:
[1] = target: T1, Retinol-binding protein 4 (Homo sapiens, UniProt P02753); assay: Displacement of [3H]-retinol from RBP4 (unknown origin) by scintillation proximity assay
[2] = target: T1, Retinol-binding protein 4; assay: Inhibition of retinol-induced interaction of bacterially expressed MBP-tagged RBP4 (unknown origin) with Eu3+ cryptate labeled TTR by HTRF assay
[3] = Metabolic stability in rat liver microsomes assessed as compound remaining at 10 uM after 30 mins; assay type: ADME; conditions: read-out: Stability
[4] = Metabolic stability in human liver microsomes assessed as compound remaining at 10 uM after 30 mins; assay type: ADME; conditions: read-out: Stability

| IC50 [1] [nM] | IC50 [2] [nM] | remaining at 0.5 h, 10 µM [3] [%] | remaining at 0.5 h, 10 µM [4] [%] | SMILES |
| --- | --- | --- | --- | --- |
| 68.4 | 2000 | – | – | Cc1ccc(C(=O)O)c(N2C[C@H]3C[C@@H](c4ccccc4C(F)(F)F)C[C@H]3C2)n1 |
| 6.3 | 100 | 9.8 | 0.2 | COC(=O)c1cc(C)nc(N2C[C@H]3C[C@@H](c4ccccc4C(F)(F)F)C[C@H]3C2)n1 |
| 57.4 | 140 | 76 | 80 | Cc1cc(C(=O)O)nc(N2C[C@@H]3CN(c4ccccc4C(F)(F)F)C[C@@H]3C2)n1 |
